# Data published in patent US10351575B2, “Bicyclic urea, thiourea, guanidine and cyanoguanidine compounds useful for the treatment of pain” (Array BioPharma Inc., priority 2012, dated 2019).
# Biological target: His-tagged recombinant human TrkA (Homo sapiens (Human), UniProt P04629)
# Experiment: TrkA LanthaScreen Eu Kinase Binding Assay
# Conditions: averaged IC50; TR-FRET binding, 60 min, 22° C.; read-out: TrkA Enzyme IC50
# Procedure: TrkA binding activity was determined in a TrkA LanthaScreen™ Eu Kinase Binding Assay. 5 nM His-tagged recombinant human TrkA (6HIS tagged cytoplasmic domain from Invitrogen, Catalog No. PV3144) was incubated with 4 nM Alexa-Fluor® Tracer 236 (Invitrogen Cat. No. PV5592), 2 nM biotinylated anti-His (Invitrogen Cat. No. PV6090), and 2 nM europium-labeled Streptavidin (Invitrogen Cat. No. PV5899), in buffer (25 mM MOPS, pH 7.5, 5 mM MgCl2, 0.005% Triton X-100). Three fold serial dilutions of compounds of the invention in DMSO were added to a final percentage of 2% DMSO. After 60-minute incubation at 22° C., the reaction was measured using the EnVision mutlimode plate reader (PerkinElmer) via TR-FRET dual wavelength detection at […]. The percent of control was calculated using a ratiometric emission factor. The IC50 values were determined by fitting a four parameter model to the percent of control data.
# Sequence of His-tagged recombinant human TrkA (P04629 440-796): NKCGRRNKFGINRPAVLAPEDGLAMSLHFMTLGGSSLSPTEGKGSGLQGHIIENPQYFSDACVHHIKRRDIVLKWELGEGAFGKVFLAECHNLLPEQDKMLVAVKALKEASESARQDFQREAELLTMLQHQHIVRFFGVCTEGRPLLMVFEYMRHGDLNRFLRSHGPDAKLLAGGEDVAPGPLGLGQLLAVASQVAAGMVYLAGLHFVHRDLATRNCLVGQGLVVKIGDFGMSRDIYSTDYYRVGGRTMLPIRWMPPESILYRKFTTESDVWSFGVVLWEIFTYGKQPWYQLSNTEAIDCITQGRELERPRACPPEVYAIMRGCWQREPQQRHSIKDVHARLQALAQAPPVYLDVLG
row,SMILES,IC50
1,"Cc1c(-c2cnn(C)c2)nn(-c2ccccc2)c1NC(=O)N[C@@H]1c2ccccc2C2(CC2)[C@H]1O (relative stereo) [Example 55, 1-(1′,4-dimethyl-1-phenyl-1H,1′H-[3,4′-bipyrazol]-5-yl)-3-(trans-2′-hydroxy-2′,3′-dihydrospiro[cyclopropane-1,1′-inden]-3′-yl)urea]",< 100 nM
2,"Cc1ncc(-c2nn(-c3ccccc3)c(NC(=O)N[C@@H]3c4ccccc4C4(CC4)[C@H]3O)c2C)cn1 (relative stereo) [Example 56, 1-(trans-2′-hydroxy-2′,3′-dihydrospiro[cyclopropane-1,1′-inden]-3′-yl)-3-(4-methyl-3-(2-methylpyrimidin-5-yl)-1-phenyl-1H-pyrazol-5-yl)urea]",< 100 nM
3,"COc1ncc(-c2nn(-c3ccccc3)c(NC(=O)N[C@@H]3c4ccccc4C4(CC4)[C@H]3O)c2C)cn1 (relative stereo) [Example 57, 1-(trans-2′-hydroxy-2′,3′-dihydrospiro[cyclopropane-1,1′-inden]-3′-yl)-3-(3-(2-methoxypyrimidin-5-yl)-4-methyl-1-phenyl-1H-pyrazol-5-yl)urea]",< 100 nM
4,"Cc1c(-c2cnn(C)c2)nn(-c2ccccc2)c1NC(=O)N[C@@H]1c2cc(F)c(F)cc2C2(CC2)[C@H]1O (relative stereo) [Example 58, 1-(trans-5′,6′-difluoro-2′-hydroxy-2′,3′-dihydrospiro[cyclopropane-1,1′-inden]-3′-yl)-3-(1′,4-dimethyl-1-phenyl-1H,1′H-[3,4′-bipyrazol]-5-yl)urea]",< 100 nM
5,"COc1nn(-c2ccccc2)c(NC(=O)N[C@@H]2c3ccccc3C3(CC3)[C@H]2O)c1C (relative stereo) [Example 60, 1-(trans-2′-hydroxy-2′,3′-dihydrospiro[cyclopropane-1,1′-inden]-3-yl)-3-(3-methoxy-4-methyl-1-phenyl-1H-pyrazol-5-yl)urea]",< 100 nM
6,"CCOc1nn(-c2ccccc2)c(NC(=O)N[C@@H]2c3ccccc3C3(CC3)[C@H]2O)c1C (relative stereo) [Example 61, 1-(3-ethoxy-4-methyl-1-phenyl-1H-pyrazol-5-yl)-3-(trans-2′-hydroxy-2′,3′-dihydrospiro[cyclopropane-1,1-inden]-3-yl)urea]",< 100 nM
7,"COc1nn(-c2ccccc2)c(NC(=O)N[C@@H]2c3cc(F)c(F)cc3C3(CC3)[C@H]2O)c1C (relative stereo) [Example 62, 1-(trans-5′,6′-difluoro-2′-hydroxy-2′,3′-dihydrospiro[cyclopropane-1,1′-inden]-3′-yl)-3-(3-methoxy-4-methyl-1-phenyl-1H-pyrazol-5-yl)urea]",< 100 nM
8,"Cc1c(-c2cnn(C)c2)nn(-c2ccccc2)c1NC(=O)N[C@@H]1c2cc(F)ccc2C2(CC2)[C@H]1O (relative stereo) [Example 63, 1-(1′,4-dimethyl-1-phenyl-1H,1′H-[3,4′-bipyrazol]-5-yl)-3-(trans-5′-fluoro-2′-hydroxy-2′,3′-dihydrospiro[cyclopropane-1,1′-inden]-3′-yl)urea]",< 100 nM
9,"Cc1c(-c2cnn(C)c2)nn(-c2ccccc2)c1NC(=O)N[C@@H]1c2ccc(F)cc2C2(CC2)[C@H]1O (relative stereo) [Example 64, 1-(1′,4-dimethyl-1-phenyl-1H,1′H-[3,4′-bipyrazol]-5-yl)-3-(trans-6′-fluoro-2′-hydroxy-2′,3′-dihydrospiro[cyclopropane-1,1′-inden]-3′-yl)urea]",< 100 nM
10,"Cc1c(NC(=O)N[C@@H]2c3ccccc3C(C)(C)C[C@H]2O)n(-c2ccccc2)[nH]c1=O (relative stereo) [Example 95, 1-(trans-2-hydroxy-4,4-dimethyl-1,2,3,4-tetrahydronaphthalen-1-yl)-3-(4-methyl-5-oxo-2-phenyl-2,5-dihydro-1H-pyrazol-3-yl)urea]",< 100 nM
11,"COc1nn(-c2ccccc2)c(NC(=O)N[C@@H]2c3ccccc3C(C)(C)C[C@H]2O)c1C (relative stereo) [Example 97, 1-(trans-2-hydroxy-4,4-dimethyl-1,2,3,4-tetrahydronaphthalen-1-yl)-3-(3-methoxy-4-methyl-1-phenyl-1H-pyrazol-5-yl)urea]",< 100 nM
12,"COC(=O)c1ccc2c(c1)[C@@H](NC(=O)Nc1c(C)c(C)nn1-c1ccccc1)[C@H](O)CC2(C)C (relative stereo) [Example 99, trans-methyl 8-(3-(3,4-dimethyl-1-phenyl-1H-pyrazol-5-yl)ureido)-7-hydroxy-5,5-dimethyl-5,6,7,8-tetrahydronaphthalene-2-carboxylate]",< 100 nM
13,"Cc1c(-c2cnn(C)c2)nn(-c2ccccc2)c1NC(=O)N[C@@H]1c2ccccc2CC[C@H]1O (relative stereo) [Example 101, 1-(1′,4-dimethyl-1-phenyl-1H,1′H-[3,4′-bipyrazol]-5-yl)-3-(trans-2-hydroxy-1,2,3,4-tetrahydronaphthalen-1-yl)urea]",< 100 nM
14,"COCc1ccc2c(c1)[C@@H](NC(=O)Nc1c(C)c(-c3cnn(C)c3)nn1-c1ccccc1)[C@H](O)CC2(C)C (relative stereo) [Example 102, 1-(1′,4-dimethyl-1-phenyl-1H,1′H-[3,4′-bipyrazol]-5-yl)-3-(trans-2-hydroxy-7-(methoxymethyl)-4,4-dimethyl-1,2,3,4-tetrahydronaphthalen-1-yl)urea]",< 100 nM
15,"Cc1c(-c2cnn(C)c2)nn(-c2ccccc2)c1NC(=O)N[C@@H]1c2cc(Cl)ccc2C(C)(C)C[C@H]1O (relative stereo) [Example 104, 1-(trans-7-chloro-2-hydroxy-4,4-dimethyl-1,2,3,4-tetrahydronaphthalen-1-yl)-3-(1′,4-dimethyl-1-phenyl-1H,1′H-[3,4′-bipyrazol]-5-yl)urea]",< 100 nM
16,"Cc1c(-c2cnn(C)c2)nn(-c2ccccc2)c1NC(=O)N[C@@H]1c2ccccc2C(C)(C)C[C@H]1O (relative stereo) [Example 105, 1-(1′,4-dimethyl-1-phenyl-1H,1′H-[3,4′-bipyrazol]-5-yl)-3-(trans-2-hydroxy-4,4-dimethyl-1,2,3,4-tetrahydronaphthalen-1-yl)urea]",< 100 nM
17,"Cc1c(-c2ccc(=O)n(C)c2)nn(-c2ccccc2)c1NC(=O)N[C@@H]1c2ccccc2C(C)(C)C[C@H]1O (relative stereo) [Example 106, 1-(trans-2-hydroxy-4,4-dimethyl-1,2,3,4-tetrahydronaphthalen-1-yl)-3-(4-methyl-3-(1-methyl-6-oxo-1,6-dihydropyridin-3-yl)-1-phenyl-1H-pyrazol-5-yl)urea]",< 100 nM
18,"Cc1c(-c2ccn(C)c(=O)c2)nn(-c2ccccc2)c1NC(=O)N[C@@H]1c2ccccc2C(C)(C)C[C@H]1O (relative stereo) [Example 107, 1-(trans-2-hydroxy-4,4-dimethyl-1,2,3,4-tetrahydronaphthalen-1-yl)-3-(4-methyl-3-(1-methyl-2-oxo-1,2-dihydropyridin-4-yl)-1-phenyl-1H-pyrazol-5-yl)urea]",< 100 nM
19,"Cc1ncc(-c2nn(-c3ccccc3)c(NC(=O)N[C@@H]3c4ccccc4CC[C@H]3O)c2C)cn1 (relative stereo) [Example 118, 1-(trans-2-hydroxy-1,2,3,4-tetrhydronaphthalen-1-yl)-3-(4-methyl-3-(2-methylpyrimidin-5-yl)-1-phenyl-1H-pyrazol-5-yl)urea]",< 100 nM
20,"COc1ncc(-c2nn(-c3ccccc3)c(NC(=O)N[C@@H]3c4ccccc4CC[C@H]3O)c2C)cn1 (relative stereo) [Example 119, 1-(trans-2-hydroxy-1,2,3,4-tetrahydronaphthalen-1-yl)-3-(3-(2-methoxypyrimidin-5-yl)-4-methyl-1-phenyl-1H-pyrazol-5-yl)urea]",< 100 nM
21,"CNC(=O)c1nn(-c2ccccc2)c(NC(=O)N[C@@H]2c3cc(COC)ccc3C(C)(C)C[C@H]2O)c1C (relative stereo) [Example 120, 5-(3-(trans-2-hydroxy-7-(methoxymethyl)-4,4-dimethyl-1,2,3,4-tetrahydronaphthalen-1-yl)ureido)-N,4-dimethyl-1-phenyl-1H-pyrazole-3-carboxamide]",< 100 nM
22,"Cc1nn(-c2ccccc2)c(NC(=O)N[C@@H]2c3ccccc3CC[C@H]2O)c1C (relative stereo) [Example 121, 1-(3,4-dimethyl-1-phenyl-1H-pyrazol-5-yl)-3-(trans-2-hydroxy-1,2,3,4-tetrahydronaphthalen-1-yl)urea]",< 100 nM
23,"Cc1c(OCC2CCN(C)CC2)nn(-c2ccccc2)c1NC(=O)N[C@@H]1c2ccccc2C(C)(C)C[C@H]1O (relative stereo) [Example 122, 1-(trans-2-hydroxy-4,4-dimethyl-1,2,3,4-tetrahydronaphthalen-1-yl)-3-(4-methyl-3-((1-methylpiperidin-4-yl)methoxy)-1-phenyl-1H-pyrazol-5-yl)urea]",< 100 nM
24,"Cc1c(OCC2CCN(C)CC2)nn(-c2ccccc2)c1NC(=O)N[C@@H]1c2ccccc2CC[C@H]1O (relative stereo) [Example 123, 1-(trans-2-hydroxy-1,2,3,4-tetrahydronaphthalen-1-yl)-3-(4-methyl-3-((1-methylpiperidin-4-yl)methoxy)-1-phenyl-1H-pyrazol-5-yl)urea]",< 100 nM
25,"CNC(=O)c1nn(-c2ccccc2)c(NC(=O)N[C@@H]2c3ccccc3C(C)(C)C[C@H]2O)c1C (relative stereo) [Example 124, 5-(3-(trans-2-hydroxy-4,4-dimethyl-1,2,3,4-tetrahydronaphthalen-1-yl)ureido)-N,4-dimethyl-1-phenyl-1H-pyrazole-3-carboxamide]",< 100 nM
